From US20140072617A1, “METHOD FOR PREVENTING OR SLOWING DOWN THE APPEARANCE OF THE EFFECTS OF SKIN AGEING USING A TOCOPHERYL PHOSPHATE IN LIPOSOMES” (LVMH RECHERCHE, priority 2007, published 2014) come the findings set out here.

Test [1] has as its system normal human keratinocytes (NHKs). In words: Apoptosis of normal human keratinocytes after H2O2 oxidative stress (JC-1/TOTO-3 cytometry). In kind it is cell-based. Particulars: for % NHKs undergoing apoptosis: pretreated 24 h at 10 μg/ml, then 1 mM H2O2 for 3 h, nontreated H2O2 control 54.82, nontreated control 5.48. As to the method: The cells undergoing apoptosis (programmed cell death) are examined on normal human keratinocytes (NHKs) in culture.
The cells are pretreated or not pretreated (controls) for 24 h with the vitamin E derivatives in solution at 10 μg/ml.
The cells are subsequently subjected to oxidative stress (1 mM H2O2 for 3 h).
The proportion of cells undergoing apoptosis is determined by cytometry using the fluorescent probes JC-1 (measurement of mitochondrial transmembrane potential) and TOTO-3 (measurement of plasma membrane permeability).
The apoptotic cells are JC-1-negative (corresponding to a drop in the mitochondrial transmembrane potential) and TOTO-3-negative (corresponding to an absence of alteration of the plasma membrane).
This method has been published (Zullani et al. Cytometry part A, 2003, 54A: 100-108).

The test system of a further test is epidermal stem cells. In words: Clonogenicity test on keratinocyte colonies derived from epidermal stem cells after oxidative stress. The conditions noted are these: 1 μg/ml for 24 h, then hydrogen peroxide 15 minutes, 7 days of culture; versus stressed controls without treatment. In kind it is cell-based, human. From the text:
In order to study these epidermal stem cells in the basal cell layer of the epidermis, the test carried out, known as clonogenecity test, is based on the ability that the stem cells have of adhering, in vitro, to a culture support and of dividing so as to generate a large population of daughter cells grouped together in the form of colonies (Barrandon Y., Green H., Three clonal types of keratinocyte with different capacities for multiplication, […], 2302-2306 (1987), and Barrandon Y., Biologie des cellules souches épidermiques [Epidermal Stem Cell Biology], Ann. Dermatol. Venereol. Suppl. 2: 285-286, (1998)).
Analysis of the number and of the size of the colonies after culture makes it possible to characterize the epidermal stem cells.
The first step of isolating these cells consists in preparing a suspension of epidermal cells (Germain L et al., Improvement of human keratinocyte isolation and culture using thermolysin, Burns 19, 99-104 (1993)).
These cells are subsequently seeded onto feeder cells (3T3 fibroblasts), the mitotic activity of which is blocked with mitomycin. […]
After 7 days of culture, the cell colonies formed from each initial keratinocyte are coloured and counted by image analysis according to their size so as to evaluate the amount of stem cells of the initial culture. […]

Consider `Cc1c(C)c2c(c(C)c1O)CC[C@@](C)(CCC[C@H](C)CCC[C@H](C)CCCC(C)C)O2` [alpha-tocopherol], for which the “% NHKs undergoing apoptosis” value in test [1] is on record as 58.82%.

In the case of `Cc1c(C)c2c(c(C)c1OP(=O)([O-])[O-])CCC(C)(CCCC(C)CCCC(C)CCCC(C)C)O2.[Na+].[Na+]` (stereo not drawn) [sodium alpha-tocopheryl phosphate], in the test on epidermal stem cells, the “number of large colonies (>4 mm^2) compared with the controls” value is “+104%”.

Regarding `Cc1c(C)c2c(c(C)c1OC(=O)c1cc(O)ccc1O)CCC(C)(CCCC(C)CCCC(C)CCCC(C)C)O2` (stereo not drawn) [tocopheryl gentisate], the “% NHKs undergoing apoptosis” value in test [1] came out at 60.67%.

Turning to alpha-tocopheryl phosphate, the “protective effect against oxidative stress for the keratinocytes (in words)” value in test [1] (10 μg/ml 24 h, 1 mM H2O2 3 h, compared with control, vitamin E and the other derivatives) is “significantly greater than that observed for the control, and also than that observed for vitamin E or the other derivatives”. Besides, the “% NHKs undergoing apoptosis” value in test [1] is 32.79%.

Regarding tocotrienol, the “% NHKs undergoing apoptosis” value in test [1] turned out to be 42.85%.
